Measurements from patent US20240293364A1, “BIOMARKERS FOR CANCER THERAPY USING MDM2 ANTAGONISTS” (OTSUKA PHARMACEUTICAL CO., LTD., priority 2021, published 2024).

Key:
DDR signalling pathway = test: Western blotting of DDR signalling in ATM mutant cell lines; type: cell-based; conditions: ATM mutant cell lines (FIG. 2E)
Protocol: The cell lysates were then analysed by Western blotting. […] After washing, blots were incubated for 1 hour with infrared dye labelled anti-rabbit IR800 or anti-goat IR800 secondary antibodies at a dilution of 1: 10,000 in Odyssey blocking buffer (LiCor Biosciences, Lincoln, USA).

[1] = tested on: xenograft model of MSI-H colorectal cancer (HCT-116); test: In vivo efficacy, HCT116 xenograft; design: species or system BALB/c nude mice; conditions: HCT-116 xenograft, 50 mg/kg daily (FIG. 4D)
Protocol: 5×10^6 HCT116 cells (in 100 μl of PBS) were injected subcutaneously into the right hind flank of groups of BALB/c nude mice. Tumours were measured externally by using a pair of digital callipers and volumes calculated as length×width^2×0.523. Before starting the study, the mice were arranged into groups of 8 according to tumour volume; mean volume should be circa 100 mm^3 with a normal range of 50 to 150 mm^3. […] Tumour volumes were measured every 2 to 3 days; animals were sacrificed when tumour volume was >1000 mm^3 or if the tumours started to show any abnormalities, such as ulceration.

[2] = tested on: ATM mutant cell lines LNCap and HepG2; test: Apoptosis assays (Annexin V-FITC/PI flow cytometry); type: cell-based; conditions: LNCap prostate and HepG2 liver (FIG. 2D)
Protocol: After 72-hour incubation of the cells with compound, cells were trypsinised, washed with PBS and immediately used for flow cytometry analysis.
The samples were stained with eBioscience™ Annexin V-FITC Apoptosis Detection Kit (#BMS500FI-100, Thermo Fisher Scientific, Waltham, MA, USA) according to manufacturer's recommendations. Briefly, the samples were washed in PBS and resuspended in 200 μl of 1× binding buffer containing 5 μl of Annexin V-FITC for 10 min at room temperature. Following the incubation, samples were washed with 1× binding buffer and resuspended in 200 μl 1× binding buffer and 10 μl of the 20 μg/ml PI.
The stained samples were then immediately analysed by flow cytometry on Guava easyCyte HT cytometer (Merck-Millipore). The cell populations were separated into three groups: live cells showing only a low level of fluorescence (Annexin V-/PI-), apoptotic cells showing green fluorescence (Annexin V+/PI−) and dead cells showing both red and green fluorescence (Annexin V+/PI+). Data analyses were performed using Microsoft excel and results plotted on Prism version 7 (GraphPad Software, California, USA).

[3] = tested on: panel of 237 cancer cell lines; test: Cell panel screen of 237 cancer cell lines; type: cell-based; conditions: MSI-H colorectal cell lines
Source text: Genomic features for these cell lines such as somatic mutations, copy number alterations and hypermethylation were obtained from the list of Cancer Functional Events as mentioned in Garnett et al (2016) ANOVA method was used to identify significant associations of genomics features to drug response.

A2780 = test: CellTiter-Glo cell viability, combination matrix with PARP inhibitors (HSA synergy), A2780; type: cell-based; conditions: A2780, TP53 WT, DDR defective, 72 h
Protocol: (§1) The cell line will be treated with test articles alone, matrix combinations with test articles and culture medium as vehicle control.
(§2) • 1. Harvest cells during the logarithmic growth period and count cell number. • 2. Adjust cell concentrations to 4.0×10^4cells/mL with respective culture medium. • 3. Add 100 μL cell suspensions to three 96-well plates (plates A, B and C) with the final cell density of 4×10^3 cells/well. 4a. Next Day: For the Plates of TO Reading: • 1) Equilibrate the plate A and its content at RT for approximately 30 min. • 2) Add 50 μL CellTiter-Glo reagent to each well. • 3) Mix content for 5 min on an orbital shaker to induce cell lysis. • 4) Allow the plate to incubate at RT for 20 min to stabilize luminescent signal. • 5) Record luminescence (TO) using EnVision Multi Label Reader. 4b. For the Plates of Test Reading: • 1) Prepare 500× solution of test articles (Top working concentration: 10 μM/100 μM of test articles in media with 3-fold serial dilutions to achieve 9 dose levels. • 2) Prepare 10× reference control solutions (Top working concentration: 100 μM in media with 3.16-fold serial dilutions. • 3) Dispense 500× drug solutions in each well (triplicate for each drug concentration) of the plate B using digital dispenser. […] Record luminescence (T3) using EnVision Multi Label Reader. […]

CAL-51 = test: CellTiter-Glo cell viability, combination matrix with PARP inhibitors (HSA synergy), CAL-51; type: cell-based; conditions: CAL-51, TP53 WT, BRCA2 Mutant, 72 h
Protocol: as §1, §2

[4] = Compound 1 in combination with Olaparib
[5] = Compound 1 in combination with Talazoparib

`CC[C@@](O)(c1cc(F)c2c(c1)C(=O)N([C@H](c1ccc(Cl)cc1)[C@H](C)C(=O)O)[C@@]2(OC)c1ccc(Cl)cc1)C1CCOCC1` [Example 124, (2S,3S)-3-(4-chlorophenyl)-3-[(1R)-1-(4-chlorophenyl)-7-fluoro-5-[(1S)-1-hydroxy-1-(oxan-4-yl)propyl]-1-methoxy-3-oxo-2,3-dihydro-1H-isoindol-2-yl]-2-methylpropanoic acid] was tested, and the “modulation of the DDR signalling pathway (western blot)” value (DDR signalling pathway) was “clear modulation of the DDR signalling pathway”, the tumour growth inhibition [1] was “significantly inhibits tumour growth” and the “sensitivity as measured by increased apoptosis” value [2] was “showed sensitivity”. For the same compound, the “sensitivity in the cell panel data” value [3] was “sensitive”, the “HSA_Average <−5 Antagonism >+5 Synergy” value (A2780; [4]) was 6.2 and the “HSA_Average <−5 Antagonism >+5 Synergy” value (A2780; [5]) was 12.3. The “HSA_Average <−5 Antagonism >+5 Synergy” value (CAL-51; [4]) was 8.0 and the “HSA_Average <−5 Antagonism >+5 Synergy” value (CAL-51; [5]) was 15.7.
